# Literature values in patent publication US6939558B2, “Intravaginal devices containing progesterone for estrus synchronization and related proceses” (Akzo Nobel N.V., priority 2001, dated 2005).
# Test system: bovines
# Details: 1 mg Estradiol Benzoate 24 hours after removal of the device
smiles,measurement,value
C[C@]12CC[C@@H]3c4ccc(OC(=O)c5ccccc5)cc4CC[C@H]3[C@@H]1CC[C@@H]2O [Estradiol Benzoate],ovulation after removal of the device,70 h
